We go through 1 molecule from patent US10947229B2, “Dimethyl amino azetidine amides as JAK inhibitors” (THERAVANCE BIOPHARMA R&D IP, LLC, priority 2018, dated 2021).

This test has as its system IL-12 stimulated STAT4 phosphorylation in CD3+ T cells. The test can be described thus: Cellular JAK potency assay: inhibition of IL-12-induced pSTAT4. It is filed as cell-based. As to conditions: T-cell; CD3+ T cells from human whole blood; read-out: pIC50, inhibition of IL-12-induced pSTAT4 (converted). On the procedure: The potency of test compounds for inhibition of interleukin-12 (IL-12) stimulated STAT4 phosphorylation was measured in CD3-positive (CD3+) T cells derived from human whole blood (Stanford Blood Center) using flow cytometry. Because IL-12 signals through JAK, this assay provides a measure of JAK cellular potency. CD3+ T cells were identified using a phycoerythrin (PE) conjugated anti-CD3 antibody (clone UCHT1, BD Biosciences), and an Alexa Fluor 647 conjugated anti-pSTAT4 antibody (clone 38/p-Stat4, BD Biosciences) was used to detect STAT4 phosphorylation. Human peripheral blood mononuclear cells (PBMC) were isolated from human whole blood of healthy donors using a ficoll gradient. […] After incubation, cells were washed twice in FACS buffer before being analyzed using a MACSQuant flow cytometer (Miltenyi). To determine the inhibitory potency of the test compound, the median fluorescent intensity (MFI) of pSTAT4 was measured in CD3+ T cells. IC50 values were determined from analysis of the inhibition curves of MFI vs compound concentration. Data are expressed as pIC50 (negative decadic logarithm IC50) values.

Turning to `CCc1cc(O)ccc1-c1ccc2c(-c3nc4c([nH]3)CN(C(C)C)[C@H](C(=O)N3CC(N(C)C)C3)C4)n[nH]c2c1` [Compound 1, (S)-(3-(dimethylamino)azetidin-1-yl)(2-(6-(2-ethyl-4-hydroxyphenyl)-1H-indazol-3-yl)-5-isopropyl-4,5,6,7-tetrahydro-3H-imidazo[4,5-c]pyridin-6-yl)methanone], the IC50 was 1000 nM.
